Measurements taken from patent publication US10358436B2, “Kinase inhibitors and method of treating cancer” (University Health Network, priority 2010, dated 2019).

Assays:
Abl = Abl (Homo sapiens (Human), UniProt P00519); assay: Kinase selectivity assay (CEREP HTRF panel); format: biochemical
Akt1/PKBalpha = Akt1/PKBalpha (Homo sapiens (Human), UniProt P31749); assay: Kinase selectivity assay (CEREP HTRF panel); format: biochemical
BMX kinase (Etk) = BMX kinase (Etk) (Homo sapiens (Human), UniProt P51813); assay: Kinase selectivity assay (CEREP HTRF panel); format: biochemical
Brk = Brk (Homo sapiens (Human), UniProt Q13882); assay: Kinase selectivity assay (CEREP HTRF panel); format: biochemical
CaMK2alpha = CaMK2alpha (Homo sapiens (Human), UniProt Q9UQM7); assay: Kinase selectivity assay (CEREP HTRF panel); format: biochemical
CaMK4 = CaMK4 (Homo sapiens (Human), UniProt Q16566); assay: Kinase selectivity assay (CEREP HTRF panel); format: biochemical
CHK1 = CHK1 (Homo sapiens (Human), UniProt O14757); assay: Kinase selectivity assay (CEREP HTRF panel); format: biochemical
CHK2 = CHK2 (Homo sapiens (Human), UniProt O96017); assay: Kinase selectivity assay (CEREP HTRF panel); format: biochemical
c-Met kinase = c-Met kinase (Homo sapiens (Human), UniProt P08581); assay: Kinase selectivity assay (CEREP HTRF panel); format: biochemical
CSK = CSK (Homo sapiens (Human), UniProt P41240); assay: Kinase selectivity assay (CEREP HTRF panel); format: biochemical
EphB4 kinase = EphB4 kinase (Homo sapiens (Human), UniProt P54760); assay: Kinase selectivity assay (CEREP HTRF panel); format: biochemical
ERK1 = ERK1 (Homo sapiens (Human), UniProt P27361); assay: Kinase selectivity assay (CEREP HTRF panel); format: biochemical
ERK2 (P42mapk) = ERK2 (P42mapk) (Homo sapiens (Human), UniProt P28482); assay: Kinase selectivity assay (CEREP HTRF panel); format: biochemical; settings: read-out: % Inhibition @ 10 uM, ERK (P42mapk)
FGFR4 kinase = FGFR4 kinase (Homo sapiens (Human), UniProt P22455); assay: Kinase selectivity assay (CEREP HTRF panel); format: biochemical
Chain of FGFR4 kinase (P22455 22-802): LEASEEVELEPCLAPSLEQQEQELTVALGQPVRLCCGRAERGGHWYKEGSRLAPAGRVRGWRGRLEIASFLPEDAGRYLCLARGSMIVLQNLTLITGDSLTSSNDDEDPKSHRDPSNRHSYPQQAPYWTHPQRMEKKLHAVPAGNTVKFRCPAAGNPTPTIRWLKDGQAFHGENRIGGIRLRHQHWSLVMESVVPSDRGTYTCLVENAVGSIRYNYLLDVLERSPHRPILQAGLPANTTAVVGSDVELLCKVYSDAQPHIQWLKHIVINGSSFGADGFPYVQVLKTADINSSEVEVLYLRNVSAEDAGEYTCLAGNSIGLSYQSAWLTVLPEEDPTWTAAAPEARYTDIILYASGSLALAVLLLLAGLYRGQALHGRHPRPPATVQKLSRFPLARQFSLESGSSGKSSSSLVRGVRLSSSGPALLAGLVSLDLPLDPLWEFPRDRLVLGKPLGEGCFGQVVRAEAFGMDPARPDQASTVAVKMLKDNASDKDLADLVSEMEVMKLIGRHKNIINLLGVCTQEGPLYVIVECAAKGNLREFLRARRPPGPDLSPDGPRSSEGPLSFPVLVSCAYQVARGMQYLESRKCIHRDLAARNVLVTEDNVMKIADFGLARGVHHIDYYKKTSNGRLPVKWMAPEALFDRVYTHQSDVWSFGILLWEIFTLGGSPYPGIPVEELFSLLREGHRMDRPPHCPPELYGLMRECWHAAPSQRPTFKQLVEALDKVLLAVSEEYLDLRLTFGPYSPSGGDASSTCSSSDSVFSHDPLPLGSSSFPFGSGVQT

FLT-1 kinase (VEGFR1) = FLT-1 kinase (VEGFR1) (Homo sapiens (Human), UniProt P17948); assay: Kinase selectivity assay (CEREP HTRF panel); format: biochemical
FLT3 = FLT3 (Homo sapiens (Human), UniProt P36888); assay: Kinase selectivity assay (CEREP HTRF panel); format: biochemical
Chain of FLT3 (P36888 27-993): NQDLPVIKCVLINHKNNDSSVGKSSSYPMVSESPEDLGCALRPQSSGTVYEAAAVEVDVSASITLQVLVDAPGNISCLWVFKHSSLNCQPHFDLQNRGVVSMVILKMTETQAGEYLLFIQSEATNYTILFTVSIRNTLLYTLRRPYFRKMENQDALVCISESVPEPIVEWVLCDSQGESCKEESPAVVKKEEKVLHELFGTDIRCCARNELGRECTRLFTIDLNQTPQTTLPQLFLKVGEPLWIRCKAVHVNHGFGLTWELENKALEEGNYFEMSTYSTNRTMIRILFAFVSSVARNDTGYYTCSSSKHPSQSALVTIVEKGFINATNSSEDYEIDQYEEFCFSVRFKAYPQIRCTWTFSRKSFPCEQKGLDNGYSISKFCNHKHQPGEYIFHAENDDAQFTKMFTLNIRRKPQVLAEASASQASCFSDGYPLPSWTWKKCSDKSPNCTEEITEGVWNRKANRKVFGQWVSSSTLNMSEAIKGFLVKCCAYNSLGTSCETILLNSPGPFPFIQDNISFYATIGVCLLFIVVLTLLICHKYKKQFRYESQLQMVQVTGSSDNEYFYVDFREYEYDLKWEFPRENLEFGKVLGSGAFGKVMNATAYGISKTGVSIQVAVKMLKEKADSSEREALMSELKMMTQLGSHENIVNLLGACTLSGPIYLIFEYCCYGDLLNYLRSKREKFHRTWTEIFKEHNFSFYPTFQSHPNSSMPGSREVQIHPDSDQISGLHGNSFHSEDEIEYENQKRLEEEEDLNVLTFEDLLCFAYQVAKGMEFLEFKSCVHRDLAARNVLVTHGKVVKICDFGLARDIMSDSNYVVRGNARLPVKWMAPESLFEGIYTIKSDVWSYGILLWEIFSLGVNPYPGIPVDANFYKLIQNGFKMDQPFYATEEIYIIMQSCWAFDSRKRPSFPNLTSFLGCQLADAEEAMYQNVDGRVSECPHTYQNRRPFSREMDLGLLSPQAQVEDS
Method: (§2) The assays were performed using standard HTRF assay methods as documented by CEREP against the human orthologues of Ab1 kinase, Akt1/PKBa, AMPKa, BMX kinase (Etk), Brk, CaMK2a, CaMK4, CDC2/CDK1 (cycB), CHK1, CHK2, c-Met kinase, CSK, EphB4 kinase, ERK1, ERK2 (P42mapk), FGFR2 kinase, FGFR4 kinase, FLT-1 kinase (VEGFR1), FLT-3 kinase, Fyn kinase, IGF1R kinase, IRK (InsR), JNK 2, KDR kinase (VEGFR2), Lck kinase, Lyn kinase, MAPKAPK2, MEK1/MAP2K1, p38a kinase, p38d kinase, p38 g kinase, PDGFRb kinase, PDK1, PKA, PKCa, PKCb1, PKCb2, PKCg, Ret kinase, ROCK2, RSK2, Src kinase, Syk, and TRKA (Table 3).

Fyn kinase = Fyn kinase (Homo sapiens (Human), UniProt P06241); assay: Kinase selectivity assay (CEREP HTRF panel); format: biochemical
IGF1R kinase = IGF1R kinase (Homo sapiens (Human), UniProt P08069); assay: Kinase selectivity assay (CEREP HTRF panel); format: biochemical
IRK (InsR) = IRK (InsR) (Homo sapiens (Human), UniProt P06213); assay: Kinase selectivity assay (CEREP HTRF panel); format: biochemical
JNK 2 = JNK 2 (Homo sapiens (Human), UniProt P45984); assay: Kinase selectivity assay (CEREP HTRF panel); format: biochemical
KDR kinase (VEGFR2) = KDR kinase (VEGFR2) (Homo sapiens (Human), UniProt P35968); assay: Kinase selectivity assay (CEREP HTRF panel); format: biochemical
Chain of KDR kinase (VEGFR2) (P35968 20-1356): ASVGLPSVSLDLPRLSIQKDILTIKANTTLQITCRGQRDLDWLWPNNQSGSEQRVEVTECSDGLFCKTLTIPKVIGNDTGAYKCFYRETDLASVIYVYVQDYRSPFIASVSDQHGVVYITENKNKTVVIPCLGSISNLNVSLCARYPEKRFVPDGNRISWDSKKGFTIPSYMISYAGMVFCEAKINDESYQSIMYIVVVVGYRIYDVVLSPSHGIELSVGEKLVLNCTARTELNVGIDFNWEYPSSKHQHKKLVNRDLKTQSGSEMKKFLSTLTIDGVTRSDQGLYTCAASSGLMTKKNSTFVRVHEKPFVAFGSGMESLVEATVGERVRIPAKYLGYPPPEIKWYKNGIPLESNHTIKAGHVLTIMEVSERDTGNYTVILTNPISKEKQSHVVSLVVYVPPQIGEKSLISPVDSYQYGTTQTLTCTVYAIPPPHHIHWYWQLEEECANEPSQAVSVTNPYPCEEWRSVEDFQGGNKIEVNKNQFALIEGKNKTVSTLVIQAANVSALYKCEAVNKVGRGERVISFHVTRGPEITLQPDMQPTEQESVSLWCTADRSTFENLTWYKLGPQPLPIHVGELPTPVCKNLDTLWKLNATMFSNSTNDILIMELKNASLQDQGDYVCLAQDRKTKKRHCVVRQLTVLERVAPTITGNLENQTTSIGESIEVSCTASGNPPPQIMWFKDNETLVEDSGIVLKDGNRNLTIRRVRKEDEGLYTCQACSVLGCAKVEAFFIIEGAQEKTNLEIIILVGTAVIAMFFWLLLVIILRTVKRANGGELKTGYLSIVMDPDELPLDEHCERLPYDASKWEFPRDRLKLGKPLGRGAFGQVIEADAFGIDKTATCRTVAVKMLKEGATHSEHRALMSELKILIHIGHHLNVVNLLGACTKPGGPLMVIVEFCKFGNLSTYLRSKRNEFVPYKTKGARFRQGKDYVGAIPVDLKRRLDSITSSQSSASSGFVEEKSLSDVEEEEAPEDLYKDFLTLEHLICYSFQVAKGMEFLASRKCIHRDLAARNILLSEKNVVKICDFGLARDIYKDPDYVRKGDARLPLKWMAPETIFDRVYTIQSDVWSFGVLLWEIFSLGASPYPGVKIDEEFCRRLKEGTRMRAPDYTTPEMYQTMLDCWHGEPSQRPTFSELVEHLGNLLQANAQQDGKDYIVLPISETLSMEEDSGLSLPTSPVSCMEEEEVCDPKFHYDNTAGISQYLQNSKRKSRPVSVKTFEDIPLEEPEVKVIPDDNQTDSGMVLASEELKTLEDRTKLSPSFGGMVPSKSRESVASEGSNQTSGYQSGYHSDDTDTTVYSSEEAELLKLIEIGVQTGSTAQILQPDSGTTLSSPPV
Method: as §2

Lck = Lck (Homo sapiens (Human), UniProt P06239); assay: Kinase selectivity assay (CEREP HTRF panel); format: biochemical
Lyn kinase = Lyn kinase (Homo sapiens (Human), UniProt P07948); assay: Kinase selectivity assay (CEREP HTRF panel); format: biochemical
Chain of Lyn kinase (P07948 whole entry): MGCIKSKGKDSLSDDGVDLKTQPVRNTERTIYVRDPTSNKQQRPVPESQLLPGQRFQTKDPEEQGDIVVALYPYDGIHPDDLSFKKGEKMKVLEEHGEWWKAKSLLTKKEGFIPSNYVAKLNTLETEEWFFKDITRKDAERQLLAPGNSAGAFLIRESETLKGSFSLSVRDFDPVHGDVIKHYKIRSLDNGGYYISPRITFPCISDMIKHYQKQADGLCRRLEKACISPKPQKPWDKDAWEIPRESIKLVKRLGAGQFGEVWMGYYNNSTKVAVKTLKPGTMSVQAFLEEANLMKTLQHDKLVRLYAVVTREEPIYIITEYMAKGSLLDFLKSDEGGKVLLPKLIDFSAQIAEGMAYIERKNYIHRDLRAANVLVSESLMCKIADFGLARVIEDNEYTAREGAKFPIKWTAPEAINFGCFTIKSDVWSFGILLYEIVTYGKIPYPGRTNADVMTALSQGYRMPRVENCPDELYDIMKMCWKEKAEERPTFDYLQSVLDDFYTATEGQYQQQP

MAPKAPK2 = MAPKAPK2 (Homo sapiens (Human), UniProt P49137); assay: Kinase selectivity assay (CEREP HTRF panel); format: biochemical
MEK1/MAP2K1 = MEK1/MAP2K1 (Homo sapiens (Human), UniProt Q02750); assay: Kinase selectivity assay (CEREP HTRF panel); format: biochemical
p38alpha kinase = p38alpha kinase (Homo sapiens (Human), UniProt Q16539); assay: Kinase selectivity assay (CEREP HTRF panel); format: biochemical
p38delta kinase = p38delta kinase (Homo sapiens (Human), UniProt O15264); assay: Kinase selectivity assay (CEREP HTRF panel); format: biochemical
p38gamma kinase = p38gamma kinase (Homo sapiens (Human), UniProt P53778); assay: Kinase selectivity assay (CEREP HTRF panel); format: biochemical
PDGFRbeta kinase = PDGFRbeta kinase (Homo sapiens (Human), UniProt P09619); assay: Kinase selectivity assay (CEREP HTRF panel); format: biochemical
PDK1 = PDK1 (Homo sapiens (Human), UniProt O15530); assay: Kinase selectivity assay (CEREP HTRF panel); format: biochemical
PKA = PKA (Homo sapiens (Human), UniProt P17612); assay: Kinase selectivity assay (CEREP HTRF panel); format: biochemical
PKCalpha = PKCalpha (Homo sapiens (Human), UniProt P17252); assay: Kinase selectivity assay (CEREP HTRF panel); format: biochemical
PKCbeta 1 = PKCbeta 1 (Homo sapiens (Human), UniProt P05771); assay: Kinase selectivity assay (CEREP HTRF panel); format: biochemical
PKCbeta 2 = PKCbeta 2 (Homo sapiens (Human), UniProt P05771); assay: Kinase selectivity assay (CEREP HTRF panel); format: biochemical
PKCgamma = PKCgamma (Homo sapiens (Human), UniProt P05129); assay: Kinase selectivity assay (CEREP HTRF panel); format: biochemical
Ret kinase = Ret kinase (Homo sapiens (Human), UniProt P07949); assay: Kinase selectivity assay (CEREP HTRF panel); format: biochemical
ROCK2 = ROCK2 (Homo sapiens (Human), UniProt O75116); assay: Kinase selectivity assay (CEREP HTRF panel); format: biochemical
RSK2 = RSK2 (Homo sapiens (Human), UniProt P51812); assay: Kinase selectivity assay (CEREP HTRF panel); format: biochemical
Src kinase = Src kinase (Homo sapiens (Human), UniProt P12931); assay: Kinase selectivity assay (CEREP HTRF panel); format: biochemical
TRKA = TRKA (Homo sapiens (Human), UniProt P04629); assay: Kinase selectivity assay (CEREP HTRF panel); format: biochemical
PLK2 = PLK2 (Homo sapiens (Human), UniProt Q9NYY3); assay: PLK2 inhibition assay (Z-Lyte); format: biochemical
Method: (§1) PLK2 inhibition was determined using the Z-Lyte assay kit from Invitrogen (cat #PV3802). The assay was performed using the recommended manufacturer's instructions with 60 μM ATP and 133 nM PLK2 (Invitrogen cat #PV4204). The % inhibition values were determined according to the manufacturer's directions and IC50 values were obtained using a non-linear 4 point logistic curve fit (XLfit4, IDBS)

PLK3 = PLK3 (Homo sapiens (Human), UniProt Q9H4B4); assay: PLK3 inhibition assay (Z-Lyte); format: biochemical
Method: as §1, with “PLK3” for “PLK2”, “100” for “60”, “21” for “133”, “#PV3812).” for “#PV4204).”, “IDBS).” for “IDBS)”

CDC2/CDK1 (cycB) = CDC2/CDK1 (cycB) (Homo sapiens (Human), UniProt P06493); assay: Kinase selectivity assay (CEREP HTRF panel); format: biochemical
HUV-EC-C cells = assay: In vitro angiogenesis assay (tube formation); format: cell-based; settings: 4 hr
Method: Activity against these RTKs can result in antiangiogenic activity which is associated with slowed tumor growth and/or tumor regression. To measure the antiangiogenic effects of compounds of the invention, selected examples were tested in an angiogenesis assay as described below.
HUV-EC-C cells were obtained from the American Type Culture Collection (ATCC, CRL-1730), and were used at early passage for the assay. The in vitro Angiogenesis Assay Kit (Chemicon) was used according to the manufacturer's recommendation. An ice-cold mixture of ECMatrix was transferred into a precooled 96-well plate. After the matrix solution had solidified (>1 hr incubation at 37° C.), 8,000 cells were mixed with the appropriate inhibitor concentration (in 100 microliters EGM-2) and plated into each well. The clinical antiangiogenic, Sutent was used as a positive control in comparison to a compound of the invention, A13. After incubation at 37° C. for 4 hr, tube formation was inspected. Two methods, pattern recognition and branch point counting, were used to quantify the progression of angiogenesis and expressed as a percentage of the control tube count (FIGS. 1 and 2).

Aurora A = Aurora A (Homo sapiens (Human), UniProt O14965); assay: Aurora A inhibition assay (Z-Lyte); format: biochemical
AMPKalpha = assay: Kinase selectivity assay (CEREP HTRF panel); format: biochemical, human
PLK1 = PLK1 (Homo sapiens (Human), UniProt P53350); assay: PLK1 inhibition assay (Z-Lyte); format: biochemical
Method: PLK1 inhibition was determined using the Z-Lyte assay kit from Invitrogen (cat #PV3802). The assay was performed using the recommended manufacturer's instructions with 25 μM ATP and 8 nM PLK1 (Invitrogen cat #PV3501). The % inhibition values were determined according to the manufacturer's directions and IC50 values were obtained using a non-linear 4 point logistic curve fit (XLfit4, IDBS)

O=C1Nc2ccccc2[C@]12C[C@H]2c1ccc2cn[nH]c2c1 (racemic) [Example A2, (1R*,2S*)-2-(1H-indazol-6-yl)spiro[cyclopropane-1,3′-indolin]-2′-one]
inhibition at 10 µM (Abl): 3% | inhibition at 10 µM (Akt1/PKBalpha): -2% | inhibition at 10 µM (BMX kinase (Etk)): -3% | inhibition at 10 µM (Brk): 1% | inhibition at 10 µM (CaMK2alpha): 41% | inhibition at 10 µM (CaMK4): 7% | inhibition at 10 µM (CHK1): -4% | inhibition at 10 µM (CHK2): -10% | inhibition at 10 µM (c-Met kinase): 15% | inhibition at 10 µM (CSK): 9% | inhibition at 10 µM (EphB4 kinase): 11% | inhibition at 10 µM (ERK1): 4% | inhibition at 10 µM (ERK2 (P42mapk)): 9% | inhibition at 10 µM (FGFR4 kinase): 0% | inhibition at 10 µM (FLT-1 kinase (VEGFR1)): 1% | inhibition at 10 µM (FLT3): 62% | inhibition at 10 µM (Fyn kinase): 7% | inhibition at 10 µM (IGF1R kinase): 20% | inhibition at 10 µM (IRK (InsR)): 4% | inhibition at 10 µM (JNK 2): -2% | inhibition at 10 µM (KDR kinase (VEGFR2)): 14% | inhibition at 10 µM (Lck): 17% | inhibition at 10 µM (Lyn kinase): 26% | inhibition at 10 µM (MAPKAPK2): -4% | inhibition at 10 µM (MEK1/MAP2K1): 4% | inhibition at 10 µM (p38alpha kinase): 6% | inhibition at 10 µM (p38delta kinase): -10% | inhibition at 10 µM (p38gamma kinase): 4% | inhibition at 10 µM (PDGFRbeta kinase): 4% | inhibition at 10 µM (PDK1): 4% | inhibition at 10 µM (PKA): 0% | inhibition at 10 µM (PKCalpha): -2% | inhibition at 10 µM (PKCbeta 1): 1% | inhibition at 10 µM (PKCbeta 2): 4% | inhibition at 10 µM (PKCgamma): 7% | inhibition at 10 µM (Ret kinase): 14% | inhibition at 10 µM (ROCK2): 39% | inhibition at 10 µM (RSK2): 17% | inhibition at 10 µM (Src kinase): -10% | inhibition at 10 µM (TRKA): 54%

O=C1Nc2ccccc2[C@]12C[C@H]2c1ccc2c(/C=C/c3ccncc3)n[nH]c2c1 (relative stereo) [Example A22, 1R*,2S*)-(E)-2-(3-(2-(pyridin-4-yl)vinyl)-1H-indazol-6-yl)spiro-[cyclo-propane-1,3′-indolin]-2′-one]
inhibition at 10 µM (PLK2): ≤ 50% | inhibition at 10 µM (PLK3): ≤ 50% | inhibition at 10 µM (Abl): 97% | inhibition at 10 µM (Akt1/PKBalpha): -1% | inhibition at 10 µM (BMX kinase (Etk)): 71% | inhibition at 10 µM (Brk): 41% | inhibition at 10 µM (CaMK4): -8% | inhibition at 10 µM (CDC2/CDK1 (cycB)): 93% | inhibition at 10 µM (CHK1): 37% | inhibition at 10 µM (CHK2): 4% | inhibition at 10 µM (c-Met kinase): 97% | inhibition at 10 µM (CSK): 99% | inhibition at 10 µM (EphB4 kinase): 99% | inhibition at 10 µM (ERK1): 8% | inhibition at 10 µM (ERK2 (P42mapk)): 11% | inhibition at 10 µM (FGFR4 kinase): 56% | inhibition at 10 µM (FLT3): 100% | inhibition at 10 µM (Fyn kinase): 87% | inhibition at 10 µM (IGF1R kinase): 22% | inhibition at 10 µM (IRK (InsR)): 21% | inhibition at 10 µM (JNK 2): 32% | inhibition at 10 µM (KDR kinase (VEGFR2)): 98% | inhibition at 10 µM (Lck): 97% | inhibition at 10 µM (Lyn kinase): 99% | inhibition at 10 µM (MAPKAPK2): 4% | inhibition at 10 µM (MEK1/MAP2K1): 12% | inhibition at 10 µM (p38alpha kinase): 32% | inhibition at 10 µM (p38delta kinase): -22% | inhibition at 10 µM (p38gamma kinase): -15% | inhibition at 10 µM (PDGFRbeta kinase): 88% | inhibition at 10 µM (PDK1): 69% | inhibition at 10 µM (PKA): -6% | inhibition at 10 µM (PKCalpha): 7% | inhibition at 10 µM (PKCbeta 1): 0% | inhibition at 10 µM (PKCbeta 2): 11% | inhibition at 10 µM (PKCgamma): 8% | inhibition at 10 µM (Ret kinase): 99% | inhibition at 10 µM (ROCK2): 88% | inhibition at 10 µM (RSK2): 48% | inhibition at 10 µM (Src kinase): 26% | inhibition at 10 µM (TRKA): 100% | anti-angiogenic effect (tube formation) (HUV-EC-C cells): anti-agiogenic effects at submicromolar concentrations

COc1ccc2c(c1)[C@]1(C[C@H]1c1ccc3c(-c4ccc(N5CCN(C)CC5)nc4)n[nH]c3c1)C(=O)N2 (relative stereo) [Example A13, (1R*,2S*)-5′-Methoxy-2-(3-(6-(4-methylpiperazin-1-yl)pyridin-3-yl)-1H-indazol-6-yl)spiro[cyclopropane-1,3′-indolin]-2′-one]
inhibition at 1 µM (Aurora A): < 50% | % Inhibition @ 10 uM, AMPKalpha (AMPKalpha): 8% | inhibition at 10 µM (FLT3): 86% | inhibition at 10 µM (KDR kinase (VEGFR2)): 6% | anti-angiogenic effect (tube formation) (HUV-EC-C cells): anti-agiogenic effects at submicromolar concentrations

CN(C)Cc1ccc(/C=C/c2n[nH]c3cc([C@@H]4C[C@@]45C(=O)Nc4ccccc45)ccc23)cc1 (relative stereo) [Example A23, (1R*,2S*)-(E)-2-(3-(4-((dimethylamino)methyl)styryl)-1H-indazol-6-yl)spiro[cyclopropane-1,3′-indolin]-2′-one 2,2,2-trifluoroacetate]
inhibition at 10 µM (PLK1): ≤ 50% | inhibition at 10 µM (PLK2): ≤ 50% | inhibition at 10 µM (PLK3): ≤ 50% | anti-angiogenic effect (tube formation) (HUV-EC-C cells): anti-agiogenic effects at submicromolar concentrations
